Experimental data taken from the kinase profiling compilation of Christmann-Franck et al. (2016).

Experiments:
Experiment in all cases: radiometric filter-binding kinase assay, Kinase HotSpot
Conditions in all cases: compound 0.5 µM; ATP 10 µM
ADRBK2 (human) = ADRBK2 (human) (UniProt P35626)
CAMK1G (human) = CAMK1G (human) (UniProt Q96NX5)
CAMK2D (human) = CAMK2D (human) (UniProt Q13557)
CAMK2G (human) = CAMK2G (human) (UniProt Q13555)
CDC42BPA (human) = CDC42BPA (human) (UniProt Q5VT25)
CSNK1G3 (human) = CSNK1G3 (human) (UniProt Q9Y6M4)
DYRK2 (human) = DYRK2 (human) (UniProt Q92630)
EPHA2 (human) = EPHA2 (human) (UniProt P29317)
EPHA3 (human) = EPHA3 (human) (UniProt P29320)
EPHB1 (human) = EPHB1 (human) (UniProt P54762)
FGFR2 (human) = FGFR2 (human) (UniProt P21802)
GRK5 (human) = GRK5 (human) (UniProt P34947)
HIPK3 (human) = HIPK3 (human) (UniProt Q9H422)
IRAK1 (human) = IRAK1 (human) (UniProt P51617)
IRAK4 (human) = IRAK4 (human) (UniProt Q9NWZ3)
MAPK11 (human) = MAPK11 (human) (UniProt Q15759)
MARK2 (human) = MARK2 (human) (UniProt Q7KZI7)
MELK (human) = MELK (human) (UniProt Q14680)
MLTK (human) = MLTK (human) (UniProt Q9NYL2)
MUSK (human) = MUSK (human) (UniProt O15146)
NEK2 (human) = NEK2 (human) (UniProt P51955)
NEK3 (human) = NEK3 (human) (UniProt P51956)
NEK9 (human) = NEK9 (human) (UniProt Q8TD19)
NUAK1 (human) = NUAK1 (human) (UniProt O60285)
NUAK2 (human) = NUAK2 (human) (UniProt Q9H093)
PAK4 (human) = PAK4 (human) (UniProt O96013)
PAK7 (human) = PAK7 (human) (UniProt Q9P286)
PASK (human) = PASK (human) (UniProt Q96RG2)
PDGFRA (human) = PDGFRA (human) (UniProt P16234)
PNCK (human) = PNCK (human) (UniProt Q6P2M8)
PRKD2 (human) = PRKD2 (human) (UniProt Q9BZL6)
ROCK2 (human) = ROCK2 (human) (UniProt O75116)
ROS1 (human) = ROS1 (human) (UniProt P08922)
RPS6KA1 KD1 KD2 (human) = RPS6KA1 KD1 KD2 (human) (UniProt Q15418)
RPS6KA3 KD1 KD2 (human) = RPS6KA3 KD1 KD2 (human) (UniProt P51812)
RPS6KA6 KD1 KD2 (human) = RPS6KA6 KD1 KD2 (human) (UniProt Q9UK32)
SRMS (human) = SRMS (human) (UniProt Q9H3Y6)
STK17A (human) = STK17A (human) (UniProt Q9UEE5)
STK39 (human) = STK39 (human) (UniProt Q9UEW8)
TAOK3 (human) = TAOK3 (human) (UniProt Q9H2K8)
VRK1 (human) = VRK1 (human) (UniProt Q99986)
ZAP70 (human) = ZAP70 (human) (UniProt P43403)

Sequence of PRKD2 (human) (Q9BZL6 whole entry, looked up): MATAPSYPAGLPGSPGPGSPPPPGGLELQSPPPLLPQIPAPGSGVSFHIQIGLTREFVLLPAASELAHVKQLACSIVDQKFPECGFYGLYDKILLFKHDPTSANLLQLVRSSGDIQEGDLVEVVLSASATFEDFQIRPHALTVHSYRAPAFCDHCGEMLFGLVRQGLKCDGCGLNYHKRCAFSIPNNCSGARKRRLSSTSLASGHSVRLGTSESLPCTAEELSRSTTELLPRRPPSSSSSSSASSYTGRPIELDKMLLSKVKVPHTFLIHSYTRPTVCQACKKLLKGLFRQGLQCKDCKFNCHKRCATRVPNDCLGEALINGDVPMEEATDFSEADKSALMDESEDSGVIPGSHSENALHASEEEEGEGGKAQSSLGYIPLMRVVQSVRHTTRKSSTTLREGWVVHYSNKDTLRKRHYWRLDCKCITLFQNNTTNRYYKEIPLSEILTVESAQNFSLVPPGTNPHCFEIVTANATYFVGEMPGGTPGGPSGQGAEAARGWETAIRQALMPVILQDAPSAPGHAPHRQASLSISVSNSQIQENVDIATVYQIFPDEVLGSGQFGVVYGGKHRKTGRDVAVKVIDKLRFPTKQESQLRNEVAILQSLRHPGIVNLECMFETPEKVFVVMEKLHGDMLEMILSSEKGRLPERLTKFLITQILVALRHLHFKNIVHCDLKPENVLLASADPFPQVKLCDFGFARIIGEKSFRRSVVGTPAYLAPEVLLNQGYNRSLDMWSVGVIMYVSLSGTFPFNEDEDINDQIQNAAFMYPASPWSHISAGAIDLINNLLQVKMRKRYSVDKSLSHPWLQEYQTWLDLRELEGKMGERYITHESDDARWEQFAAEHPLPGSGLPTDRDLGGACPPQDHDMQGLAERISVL
Sequence of RPS6KA3 KD1 KD2 (human) (P51812 whole entry, looked up): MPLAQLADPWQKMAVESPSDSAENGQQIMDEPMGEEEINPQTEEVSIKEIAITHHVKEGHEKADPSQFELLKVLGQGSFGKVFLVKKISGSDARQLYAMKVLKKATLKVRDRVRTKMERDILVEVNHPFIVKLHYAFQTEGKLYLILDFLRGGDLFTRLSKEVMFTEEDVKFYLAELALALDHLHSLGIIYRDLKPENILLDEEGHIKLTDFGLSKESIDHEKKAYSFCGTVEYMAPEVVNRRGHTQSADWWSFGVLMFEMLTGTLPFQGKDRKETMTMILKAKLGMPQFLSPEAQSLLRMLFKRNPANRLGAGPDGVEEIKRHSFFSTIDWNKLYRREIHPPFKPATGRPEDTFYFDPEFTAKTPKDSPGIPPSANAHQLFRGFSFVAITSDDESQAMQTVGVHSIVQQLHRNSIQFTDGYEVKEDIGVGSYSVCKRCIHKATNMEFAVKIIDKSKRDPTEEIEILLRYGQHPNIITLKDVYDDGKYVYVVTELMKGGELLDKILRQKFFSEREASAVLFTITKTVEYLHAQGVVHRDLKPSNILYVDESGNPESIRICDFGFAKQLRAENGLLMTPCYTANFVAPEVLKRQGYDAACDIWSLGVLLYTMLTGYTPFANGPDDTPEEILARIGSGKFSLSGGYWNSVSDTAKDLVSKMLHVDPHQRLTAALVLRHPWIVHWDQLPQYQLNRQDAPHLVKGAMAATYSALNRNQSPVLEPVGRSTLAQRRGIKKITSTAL
Sequence of RPS6KA1 KD1 KD2 (human) (Q15418 whole entry, looked up): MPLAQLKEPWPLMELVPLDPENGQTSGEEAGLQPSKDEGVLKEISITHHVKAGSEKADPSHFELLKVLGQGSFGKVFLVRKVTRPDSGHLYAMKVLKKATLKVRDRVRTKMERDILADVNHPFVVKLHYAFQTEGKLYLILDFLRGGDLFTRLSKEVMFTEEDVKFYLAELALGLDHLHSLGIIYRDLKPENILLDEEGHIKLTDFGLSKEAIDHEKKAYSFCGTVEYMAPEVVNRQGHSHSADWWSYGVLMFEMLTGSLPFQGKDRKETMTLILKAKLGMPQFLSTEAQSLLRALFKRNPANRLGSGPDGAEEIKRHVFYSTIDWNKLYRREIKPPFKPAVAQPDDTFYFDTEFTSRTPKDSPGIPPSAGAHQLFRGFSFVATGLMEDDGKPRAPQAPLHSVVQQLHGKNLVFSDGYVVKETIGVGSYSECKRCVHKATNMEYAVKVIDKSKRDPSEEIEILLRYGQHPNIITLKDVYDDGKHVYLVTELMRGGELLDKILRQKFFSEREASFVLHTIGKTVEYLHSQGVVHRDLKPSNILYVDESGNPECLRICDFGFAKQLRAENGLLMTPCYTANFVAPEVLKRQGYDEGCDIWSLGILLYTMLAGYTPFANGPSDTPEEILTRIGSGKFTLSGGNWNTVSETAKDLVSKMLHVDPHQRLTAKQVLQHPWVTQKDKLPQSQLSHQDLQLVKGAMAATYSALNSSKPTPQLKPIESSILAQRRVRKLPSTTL
Sequence of NEK9 (human) (Q8TD19 whole entry, looked up): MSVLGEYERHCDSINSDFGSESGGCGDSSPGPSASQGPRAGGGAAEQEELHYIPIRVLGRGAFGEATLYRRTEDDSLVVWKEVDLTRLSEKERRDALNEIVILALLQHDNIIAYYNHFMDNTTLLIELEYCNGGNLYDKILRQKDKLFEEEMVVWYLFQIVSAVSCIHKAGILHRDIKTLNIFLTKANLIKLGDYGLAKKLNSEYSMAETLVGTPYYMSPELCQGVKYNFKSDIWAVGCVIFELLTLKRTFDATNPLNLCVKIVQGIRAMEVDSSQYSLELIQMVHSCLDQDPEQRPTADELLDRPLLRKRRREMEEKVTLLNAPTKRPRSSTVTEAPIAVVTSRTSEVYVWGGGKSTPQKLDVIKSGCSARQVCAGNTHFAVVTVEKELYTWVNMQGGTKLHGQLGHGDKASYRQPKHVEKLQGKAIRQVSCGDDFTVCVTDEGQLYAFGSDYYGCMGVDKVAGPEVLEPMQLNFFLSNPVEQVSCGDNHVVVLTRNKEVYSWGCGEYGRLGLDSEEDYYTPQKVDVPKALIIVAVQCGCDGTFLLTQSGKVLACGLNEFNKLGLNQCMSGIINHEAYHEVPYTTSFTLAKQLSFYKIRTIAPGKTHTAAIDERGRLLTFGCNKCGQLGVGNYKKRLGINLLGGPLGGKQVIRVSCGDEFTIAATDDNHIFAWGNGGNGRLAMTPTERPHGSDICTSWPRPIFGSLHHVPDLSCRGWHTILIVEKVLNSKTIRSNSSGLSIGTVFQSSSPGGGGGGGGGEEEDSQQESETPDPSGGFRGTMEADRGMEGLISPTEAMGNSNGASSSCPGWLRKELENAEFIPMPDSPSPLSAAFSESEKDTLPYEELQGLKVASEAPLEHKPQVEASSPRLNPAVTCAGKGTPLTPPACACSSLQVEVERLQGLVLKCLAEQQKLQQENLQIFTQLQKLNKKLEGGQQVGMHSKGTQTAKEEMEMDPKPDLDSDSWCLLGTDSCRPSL
Sequence of NUAK2 (human) (Q9H093 whole entry, looked up): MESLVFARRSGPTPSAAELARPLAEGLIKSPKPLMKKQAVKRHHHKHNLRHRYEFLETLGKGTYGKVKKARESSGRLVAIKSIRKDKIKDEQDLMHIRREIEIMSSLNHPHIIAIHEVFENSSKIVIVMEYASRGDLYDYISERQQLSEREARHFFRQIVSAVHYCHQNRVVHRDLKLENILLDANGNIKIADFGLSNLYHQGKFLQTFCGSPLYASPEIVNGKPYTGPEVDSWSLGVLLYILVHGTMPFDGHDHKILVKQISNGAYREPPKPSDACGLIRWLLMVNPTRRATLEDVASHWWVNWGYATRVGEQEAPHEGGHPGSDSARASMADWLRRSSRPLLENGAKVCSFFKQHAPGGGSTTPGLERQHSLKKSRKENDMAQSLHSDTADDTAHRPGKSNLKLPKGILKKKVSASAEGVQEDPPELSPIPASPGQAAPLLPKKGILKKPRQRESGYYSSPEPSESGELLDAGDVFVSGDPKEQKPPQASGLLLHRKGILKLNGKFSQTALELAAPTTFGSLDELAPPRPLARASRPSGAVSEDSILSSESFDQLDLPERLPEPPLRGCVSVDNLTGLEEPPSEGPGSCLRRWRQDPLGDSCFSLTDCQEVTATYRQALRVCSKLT
Sequence of PDGFRA (human) (P16234 whole entry, looked up): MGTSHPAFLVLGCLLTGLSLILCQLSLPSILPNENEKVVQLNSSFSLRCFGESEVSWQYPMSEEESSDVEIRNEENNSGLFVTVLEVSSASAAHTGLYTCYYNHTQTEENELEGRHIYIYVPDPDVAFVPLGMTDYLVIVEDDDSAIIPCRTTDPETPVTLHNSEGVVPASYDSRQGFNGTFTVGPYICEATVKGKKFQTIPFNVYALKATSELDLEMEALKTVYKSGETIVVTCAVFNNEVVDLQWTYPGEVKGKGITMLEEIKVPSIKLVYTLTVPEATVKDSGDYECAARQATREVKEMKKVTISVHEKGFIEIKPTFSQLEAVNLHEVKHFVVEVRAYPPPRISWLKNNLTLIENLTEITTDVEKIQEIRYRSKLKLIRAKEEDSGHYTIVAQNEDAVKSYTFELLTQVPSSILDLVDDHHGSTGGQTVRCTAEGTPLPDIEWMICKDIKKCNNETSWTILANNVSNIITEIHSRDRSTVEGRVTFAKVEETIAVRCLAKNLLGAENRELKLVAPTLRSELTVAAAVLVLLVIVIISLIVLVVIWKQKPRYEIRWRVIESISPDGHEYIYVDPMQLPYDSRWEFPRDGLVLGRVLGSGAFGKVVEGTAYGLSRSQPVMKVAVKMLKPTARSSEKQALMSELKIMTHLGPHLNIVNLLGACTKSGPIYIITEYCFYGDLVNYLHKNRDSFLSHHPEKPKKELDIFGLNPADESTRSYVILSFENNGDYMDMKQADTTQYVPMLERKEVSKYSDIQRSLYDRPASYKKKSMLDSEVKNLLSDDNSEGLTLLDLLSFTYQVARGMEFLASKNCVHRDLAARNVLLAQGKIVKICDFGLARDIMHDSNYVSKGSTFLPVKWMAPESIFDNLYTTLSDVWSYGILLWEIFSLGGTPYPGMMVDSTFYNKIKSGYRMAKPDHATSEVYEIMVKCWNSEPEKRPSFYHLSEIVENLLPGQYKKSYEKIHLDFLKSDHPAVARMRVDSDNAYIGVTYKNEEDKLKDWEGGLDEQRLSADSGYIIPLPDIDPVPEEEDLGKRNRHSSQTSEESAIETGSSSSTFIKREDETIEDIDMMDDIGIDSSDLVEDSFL

What does the source list for Nc1ncnc2c1cnn2-c1ccccc1?
residual activity (ADRBK2 (human)): 105%; residual activity (CAMK1G (human)): 102%; residual activity (CAMK2D (human)): 94.7%; residual activity (CAMK2G (human)): 105%; residual activity (CDC42BPA (human)): 90.2%; residual activity (CSNK1G3 (human)): 93.4%; residual activity (DYRK2 (human)): 95.6%; residual activity (EPHA2 (human)): 96%; residual activity (EPHA3 (human)): 95%; residual activity (EPHB1 (human)): 97.5%; residual activity (FGFR2 (human)): 100%; residual activity (GRK5 (human)): 104%; residual activity (HIPK3 (human)): 97.6%; residual activity (IRAK1 (human)): 85.8%; residual activity (IRAK4 (human)): 89.4%; residual activity (MAPK11 (human)): 99.9%; residual activity (MARK2 (human)): 95.3%; residual activity (MELK (human)): 92.6%; residual activity (MLTK (human)): 92.5%; residual activity (MUSK (human)): 88%; residual activity (NEK2 (human)): 98.8%; residual activity (NEK3 (human)): 93.5%; residual activity (NEK9 (human)): 110%; residual activity (NUAK1 (human)): 93.2%; residual activity (NUAK2 (human)): 75.2%; residual activity (PAK4 (human)): 86.5%; residual activity (PAK7 (human)): 97%; residual activity (PASK (human)): 96.8%; residual activity (PDGFRA (human)): 103%; residual activity (PNCK (human)): 97.5%; residual activity (PRKD2 (human)): 126%; residual activity (ROCK2 (human)): 83.2%; residual activity (ROS1 (human)): 94.2%; residual activity (RPS6KA1 KD1 KD2 (human)): 79.5%; residual activity (RPS6KA3 KD1 KD2 (human)): 95%; residual activity (RPS6KA6 KD1 KD2 (human)): 94.1%; residual activity (SRMS (human)): 104%; residual activity (STK17A (human)): 102%; residual activity (STK39 (human)): 107%; residual activity (TAOK3 (human)): 89.1%; residual activity (VRK1 (human)): 84.4%; residual activity (ZAP70 (human)): 91.5%

What does the source list for c1ccc(-c2cnc(Nc3ccc(OCCN4CCCC4)cc3)s2)cc1?
residual activity (ADRBK2 (human)): 103%; residual activity (CAMK1G (human)): 101%; residual activity (CAMK2D (human)): 48.2%; residual activity (CAMK2G (human)): 66.9%; residual activity (CDC42BPA (human)): 91%; residual activity (CSNK1G3 (human)): 91.8%; residual activity (DYRK2 (human)): 95%; residual activity (EPHA2 (human)): 108%; residual activity (EPHA3 (human)): 98.7%; residual activity (EPHB1 (human)): 95.4%; residual activity (FGFR2 (human)): 92.7%; residual activity (GRK5 (human)): 99.4%; residual activity (HIPK3 (human)): 64.8%; residual activity (IRAK1 (human)): 109%; residual activity (IRAK4 (human)): 86.1%; residual activity (MAPK11 (human)): 94.7%; residual activity (MARK2 (human)): 88%; residual activity (MELK (human)): 83.5%; residual activity (MLTK (human)): 25.9%; residual activity (MUSK (human)): 84.2%; residual activity (NEK2 (human)): 90.6%; residual activity (NEK3 (human)): 92.9%; residual activity (NEK9 (human)): 101%; residual activity (NUAK1 (human)): 56.4%; residual activity (NUAK2 (human)): 107%; residual activity (PAK4 (human)): 106%; residual activity (PAK7 (human)): 87.2%; residual activity (PASK (human)): 96.4%; residual activity (PDGFRA (human)): 57.4%; residual activity (PNCK (human)): 99.8%; residual activity (PRKD2 (human)): 82.2%; residual activity (ROCK2 (human)): 91.7%; residual activity (ROS1 (human)): 96.9%; residual activity (RPS6KA1 KD1 KD2 (human)): 78%; residual activity (RPS6KA3 KD1 KD2 (human)): 92.2%; residual activity (RPS6KA6 KD1 KD2 (human)): 94.5%; residual activity (SRMS (human)): 96.5%; residual activity (STK17A (human)): 66.2%; residual activity (STK39 (human)): 75.4%; residual activity (TAOK3 (human)): 87.4%; residual activity (VRK1 (human)): 89.1%; residual activity (ZAP70 (human)): 105%
